Source: BigSolDB 2.1

Clc1ccccc1C(c1ccccc1)(c1ccccc1)n1ccnc1
solubility (mole fraction)
Settings | 293.2 K | 298.2 K | 303.2 K | 308.2 K | 313.2 K
in ethanol | 0.0154 | 0.0167 | 0.0216 | 0.025 | 0.0312
in water | 2.42e-08 | 2.92e-08 | 3.38e-08 | 3.77e-08 | 4.15e-08
